In PubChem BioAssay AID1963981 (Molecular Pharmacology Branch, DTP, NCI, 2024):

Test system: 354836-022-R-J1-PDC multicell spheroid viability
Experiment: Anticancer human tumor 354836-022-R-J1-PDC patient-derived head and neck squamous cell carcinoma cell line growth inhibition [PI3K]
Conditions: for IC50: curve of first compound; for viability, T/C: stronger effect = lower value; active = viability on the fitted dose curve at most 10% of control; inactive = the rest
Procedure, shortened: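 Multi-cell spheroids combine tumor cells with HUVEC and human MSCs, treated with targeted agents alone or with inavolisib, alpelisib, duvelisib or copanlisib. Concentrations fall in half-log steps from at or near clinical Cmax, or from 10 microM where Cmax is unknown; viability read-out.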
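Also: spheroids exposed to agents for seven days before the viability read.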

Cn1cnc2c(F)c(Nc3ccc(Br)cc3Cl)c(C(=O)NOCCO)cc21 + COc1c(OCCCN2CCOCC2)ccc2c3n(c(=NC(=O)c4cnc(N)nc4)nc12)CCN3
1860 nM: IC50 (second compound 0.0316 µM)
active: viability, T/C (second compound 0.316 µM, first compound 0.0949 µM) 11% | viability, T/C (second compound 0.316 µM, first compound 0.3 µM) 9.87% | viability, T/C (second compound 0.316 µM, first compound 0.949 µM) 5.57% | viability, T/C (second compound 0.316 µM, first compound 3 µM) 1.48% | viability, T/C (second compound 1 µM, first compound 0.00949 µM) 1.58% | viability, T/C (second compound 1 µM, first compound 0.03 µM) 1.2% | viability, T/C (second compound 1 µM, first compound 0.0949 µM) 1.03% | viability, T/C (second compound 1 µM, first compound 0.3 µM) 1.25% | viability, T/C (second compound 1 µM, first compound 0.949 µM) 0.64% | viability, T/C (second compound 1 µM, first compound 3 µM) 0.57%
> 3000 nM: IC50 (second compound 0.00316 µM) | IC50 (second compound 0.01 µM)
inactive: viability, T/C (second compound 0.00316 µM, first compound 0.00949 µM) 107% | viability, T/C (second compound 0.00316 µM, first compound 0.03 µM) 86.2% | viability, T/C (second compound 0.00316 µM, first compound 0.0949 µM) 89.4% | viability, T/C (second compound 0.00316 µM, first compound 0.3 µM) 96.6% | viability, T/C (second compound 0.00316 µM, first compound 0.949 µM) 75.5% | viability, T/C (second compound 0.00316 µM, first compound 3 µM) 58% | viability, T/C (second compound 0.01 µM, first compound 0.00949 µM) 83.3% | viability, T/C (second compound 0.01 µM, first compound 0.03 µM) 84.6% | viability, T/C (second compound 0.01 µM, first compound 0.0949 µM) 78.3% | viability, T/C (second compound 0.01 µM, first compound 0.3 µM) 89.2% | viability, T/C (second compound 0.01 µM, first compound 0.949 µM) 75.4% | viability, T/C (second compound 0.01 µM, first compound 3 µM) 60.7% | viability, T/C (second compound 0.0316 µM, first compound 0.00949 µM) 81.2% | viability, T/C (second compound 0.0316 µM, first compound 0.03 µM) 80% | viability, T/C (second compound 0.0316 µM, first compound 0.0949 µM) 67.8% | viability, T/C (second compound 0.0316 µM, first compound 0.3 µM) 66.9% | viability, T/C (second compound 0.0316 µM, first compound 0.949 µM) 66.3% | viability, T/C (second compound 0.0316 µM, first compound 3 µM) 41% | viability, T/C (second compound 0.1 µM, first compound 0.00949 µM) 43.8% | viability, T/C (second compound 0.1 µM, first compound 0.03 µM) 48.6% | viability, T/C (second compound 0.1 µM, first compound 0.0949 µM) 38.3% | viability, T/C (second compound 0.1 µM, first compound 0.3 µM) 41.9% | viability, T/C (second compound 0.1 µM, first compound 0.949 µM) 31.2% | viability, T/C (second compound 0.1 µM, first compound 3 µM) 15.2% | viability, T/C (second compound 0.316 µM, first compound 0.00949 µM) 12.7% | viability, T/C (second compound 0.316 µM, first compound 0.03 µM) 9.02%
< 9.49 nM: IC50 (second compound 0.1 µM) | IC50 (second compound 0.316 µM) | IC50 (second compound 1 µM)
